Measurements reported in paper PMC11693508, “Pharmacokinetics, bioavailability, and tissue distribution of MRTX1133 in rats using UHPLC-MS/MS” (Frontiers in Pharmacology, 2024).
Read-outs that look alike come from different tables or passages of the source.

What was measured:
[1] = Excretion in urine and feces of rats after intravenous administration; assay type: in vivo, Sprague-Dawley rats; settings: rat, intravenous 5 mg/kg; for excretion through the kidney as prototype drug (urine): mean ± SD, n = 5
Method: (§1) The distribution of MRTX1133 in the tissues was performed using 25 rats with a single intravenous administration of MRTX1133 at 5 mg kg^-1. The blood samples were collected from abdominal aorta at 0.5 h, 1 h, 2 h, 6 h, and 24 h (five rats at each time point), then the organs such as the heart, liver, spleen, lung, kidney, intestine, and pancreas were immediately collected. The organs were washed with cold physiological saline (4°C), they were weighed and homogenized in cold saline solution (1:3, w/v). The homogenized samples were treated according to the method described in the sample preparation section. The excretion of MRTX1133 in the urine was also investigated by placing the rats in metabolic cages after intravenous administration of MRTX1133 at 5 mg kg^-1 (one rat in each cage), the urine and feces were collected at 2 h, 6 h and 24 h after administration (five rats at each time point), and the content of MRTX1133 in urine and feces was detected by the LC-MS method.

[2] = system: tumor models, including pancreatic and colorectal cancer; set-up: method as in Kataoka et al., 2023; Drosten and Barbacid, 2022; settings: multiple in vivo tumor models, ref Kataoka et al., 2023, Drosten and Barbacid, 2022; cited from earlier work
KRAS (G12D) = system: KRAS (G12D); set-up: method as in Wang et al., 2022; settings: in vitro in cell culture; ref Wang et al., 2022; cited from earlier work
[3] = Tissue distribution in rats after single intravenous administration; assay type: in vivo, Sprague-Dawley rats; settings: rat, intravenous 5 mg/kg; for concentration at 2 h: after 2 h; for concentration at 6 h: after 6 h
Method: as §1

[4] = set-up: method as in Wang et al. (2022); settings: CD-1 mice, intraperitoneal 30 mg/kg, ref Wang et al. (2022), cited from earlier work
[5] = Pharmacokinetic study in rats after intragastric and intravenous administration (plasma, UHPLC-MS/MS); assay type: in vivo, Sprague-Dawley rats; settings: for Tmax: po, 25 mg/kg; for AUC(0-t): n = 10; for MRT last: read-out: MRT(0-t)
Method: The pharmacokinetic study was performed using oral solutions of MRTX1133 in 5% carboxymethyl-cellulose sodium (CMC-Na) at a concentration of 2.5 mg mL^-1 (the dose was 25 mg kg^-1 and 10 mL kg^-1). The intravenous solution was prepared at a concentration of 5 mg mL^-1 in polyethylene glycol 400 and dimethyl sulfoxide (8%). Twenty rats were randomly divided into two groups (ten rats each group), the rats in one group were given MRTX1133 by intravenous administration at 5 mg kg^-1 and the other group by intragastric administration at 25 mg kg^-1. Rats were slightly anesthetized with diethyl ether, blood samples were collected (approximately 150 µL) from the suborbital vein, and placed into heparinized tubes at 0.17 h, 0.33 h, 0.5h, 0.75 h, 1 h, 1.5 h, 2 h, 3 h, 4 h, 6 h, 8 h, 10 h, and 24 h after treatment. The rats were treated with saline at the same volume by gavage and used as control. Blood samples were centrifuged at 20,800 g for 10 min (at 4°C) and stored at - 80°C.
The DAS 3.2 software package (edited by the Chinese Mathematical Pharmacology Society) was used for the pharmacokinetic data analysis and the non-compartmental model was applied. The oral bioavailability (F) of MRTX1133 was measured by comparing each area under the curve (AUC) 0-t value after intragastric (i.g.) and intravenous (i.v.) administration according to the equation: F = (AUC i. g./Dose i. g.)/(AUC i. v./Dose i. v.).

[6] = Sprague-Dawley, rat plasma, intravenous 5 mg/kg
[7] = Sprague-Dawley, rat plasma, oral 25 mg/kg

- excretion through the kidney as prototype drug (urine) ([1]; 6 h): 10.43% ± 2.89%
- excretion through the kidney as prototype drug (urine), range ([1]; 6 h): 6.53%–13.54%
- excretion through the kidney as prototype drug (urine) ([1]; 24 h, 5 mg/kg): 22.59% ± 3.22%
- excretion through the kidney as prototype drug (urine), range ([1]; 24 h): 17.60%–25.92%
- MRTX1133 in feces ([1]; feces 24 h): no MRTX1133 was found
- concentration at 2 h ([3]; Sprague-Dawley, heart, n = 5, read-out: highest concentration in heart): 879 ± 450 ng/g
- concentration at 2 h ([3]; Sprague-Dawley, kidney, n = 5, read-out: highest concentration in kidney): 2580 ng/g
- concentration at 1 h ([3]; Sprague-Dawley, liver, at 1 h, n = 5, read-out: highest concentration in liver): 5360 ng/g
- concentration at 2 h ([3]; Sprague-Dawley, lung, n = 5, read-out: highest concentration in lung): 1230 ng/g
- concentration at 6 h ([3]; Sprague-Dawley, pancreas, n = 5, read-out: highest concentration in pancreas): 156 ± 34.2 ng/g
- concentration at 6 h ([3]; Sprague-Dawley, spleen, n = 5, read-out: highest concentration in spleen): 1860 ± 224 ng/g
- detection in testis [3]: no MRTX1133
- detection in organs at 24 h ([3]; liver, kidney, lung, spleen, heart, pancreas (except intestine), 24 h): still detectable
- tissue distribution ([3]; liver, kidney, lung, spleen, heart, pancreas, intestine): widely distributed
- bioavailability ([5]; Sprague-Dawley, plasma, oral, rat, AUC(0-t) i.g. 25 mg/kg vs i.v. 5 mg/kg, read-out: F (oral bioavailability)): 2.92%
- CL/F ([5]; Sprague-Dawley, plasma, rat, oral 25 mg/kg, read-out: CL/F (converted)): 199 L/h/kg
- Tmax ([5]; Sprague-Dawley, rat, plasma, rat plasma, oral 25 mg/kg, read-out: Tmax): 0.6 ± 0.13 h
- Tmax ([5]; Sprague-Dawley, rat, plasma, rat plasma, oral 25 mg/kg, read-out: time of peak plasma concentration (converted)): 0.75 h
- half-life [5, 6]: 2.88 ± 1.08 h
- AUC(0-t) [5, 6]: 928 ± 192 ng·h/mL
- MRT last [5, 6]: 1.34 ± 0.6 h
- Cmax [5, 7]: 130 ± 25.2 ng/mL
- half-life [5, 7]: 1.12 ± 0.46 h
- MRT last [5, 7]: 1.25 ± 0.18 h
- AUC(0-t) ([5]; Sprague-Dawley, rat plasma, oral (intragastric) 25 mg/kg): 136 ± 46.5 ng·h/mL
- plasma concentration 8 h after intravenous administration ([5]; rat plasma, intravenous 5 mg/kg, 8 h): bleow the limit of quantitation
- plasma concentration 6 h after oral administration ([5]; rat plasma, oral 25 mg/kg, 6 h): bleow the limit of quantitation
- CL/F ([5]; rat, intravenous 5 mg/kg): 5.14 ± 1.58 L/h/kg
- V/F ([5]; rat, intravenous 5 mg/kg): 22.83 ± 11.67 L/kg
- V/F ([5]; rat, oral 25 mg/kg): 318.99 ± 157.43 L/kg
SMILES: C#Cc1c(F)ccc2cc(O)cc(-c3ncc4c(N5CC6CCC(C5)N6)nc(OC[C@@]56CCCN5C[C@H](F)C6)nc4c3F)c12 [MRTX1133]
- antitumor effect in vivo [2]: induces tumor regression
- potency (KRAS (G12D)): single digit nanomolar
- selectivity for KRAS (G12D) compared with wild-type KRAS (KRAS (G12D)): more than 1000 fold
- concentration in liver, spleen, kidney and lung compared with plasma ([3]; 2 h after administration): higher than the concentration of the drug in plasma
- plasma concentration ([4]; 4 h): ~1,000 ng mL^-1
- plasma concentration ([4]; 8 h): ~100 ng/mL
- plasma concentration ([4]; 24 h): approximately 50 ng mL^-1
- Cmax ([4]; at 1 h): approximately 7,000 ng mL^-1
